Data set [1] deals with relapsed, recurrent, and/or metastatic cervical cancer. As to conditions: cited from earlier work.
The test system of data set [2] is HuPrime® cervical xenograft model CV1248 [R4P5]. The experiment in a line: Anti-tumor efficacy of tisotumab vedotin with cisplatin in cervical cancer PDX mouse model. It is filed as in vivo, BALB/c nude mice. As to conditions: alone, tisotumab vedotin 2 mg/kg and 4 mg/kg, cisplatin 4 mg/kg; for tumor growth: FIG. 1A-C; for survival: tumor size cut-off 1000 mm^3, FIGS. 1D and 1E. The method, then:
The in vivo anti-tumor efficacy of tisotumab vedotin in combination with cisplatin was evaluated in a patient-derived xenograft (PDX) mouse model in BALB/c nude mice (Crown Bioscience Inc.). Xenografts were derived from tumor specimens from cancer patients. Establishment and characterization of the PDX model was performed following primary implantation into nude mice. Tumor xenografts were passaged approximately three to five times until establishment of stable growth patterns. Tumor fragments were obtained from xenografts in serial passage in nude mice. Tumors were cut into fragments of 2-3 mm diameter and placed in phosphate-buffered saline (PBS) until subcutaneous implantation. A cervical cancer PDX model (HuPrime® cervical xenograft model CV1248 [R4P5]; Crown Bioscience Inc.) was used in this experiment. Tumor size was determined by caliper measurement at least two times a week and tumor volume was calculated as 0.5×length×width^2. When tumors reached the volume of 200 mm^3, mice were randomized in 11 groups (7-8 mice per treatment group). Mice were treated with the following by intravenous injections: 1) tisotumab vedotin alone at a dose level of 0.5 mg/kg, 1 mg/kg, 2 mg/kg or 4 mg/kg provided on day 0 and day 7 of treatment; 2) cisplatin alone at a dose of 4 mg/kg provided on day 0, day 7 and day 14 of treatment; 3) tisotumab vedotin at a dose level of 0.5 mg/kg, 1 mg/kg, 2 mg/kg or 4 mg/kg provided on day 0 and day 7 of treatment in combination with cisplatin at a dose of 4 mg/kg provided on day 0, day 7 and day 14 of treatment; 4) IgG1 isotype control at a dose of 4 mg/kg provided on day 0 and day 7 of treatment; or 5) IgG1-MMAE control at a dose of 4 mg/kg provided on day 0 and day 7 of treatment. […] Mice were housed in individually ventilated (IVC) cages, four or five mice per cage and identified by ear tags.
To determine whether there were statistically significant differences between tumor volumes in control and treatment groups, tumor volumes in the treatment groups were compared with those in the control group (e.g., treatment groups vs IgG1-MMAE control) using Mann-Whitney analysis at the last day that all groups were intact, i.e., day 38. For survival analysis (tumor volume cut-off was 1,000 mm^3). Mantel-Cox analysis was performed on Kaplan-Meier plots with a cut-off set at tumor volume >1,000 mm^3.

Data set [3] relates to bladder xenograft model BXF1036. The experiment in a line: Anti-tumor efficacy of tisotumab vedotin with cisplatin in bladder cancer PDX mouse model. It is filed as in vivo, Crl:NMRI-Foxn1^nu nude mice. As to conditions: alone; for tumor growth: tisotumab vedotin 0.5 mg/kg, cisplatin 2 mg/kg, FIG. 2A-C; for survival: tumor size cut-off 500 mm^3, FIG. 2D. The procedure: The in vivo anti-tumor efficacy of tisotumab vedotin in combination with cisplatin was evaluated in a PDX mouse model in female Crl:NMRI-Foxn1^nu (Envigo RMS SARL, France) nude mice (Charles River Discovery Research Services). Xenografts were derived from tumor specimens from cancer patients. Establishment and characterization of the PDX model was performed following primary implantation into nude mice. Tumor xenografts were passaged approximately three to five times until establishment of stable growth patterns. Tumor fragments were obtained from xenografts in serial passage in nude mice. Tumors were cut into fragments of 3-4 mm diameter and placed in phosphate-buffered saline (PBS) until subcutaneous implantation. A bladder cancer PDX model (bladder xenograft model BXF1036; Charles River Discovery Research Services) was used in this experiment. Tumor size was determined by caliper measurement at least two times a week and tumor volume was calculated as 0.52×length×[…]. When tumors reached the volume of 50-250 mm^3, mice were randomized in 5 groups (10 mice per treatment group). Mice were treated with the following: 1) tisotumab vedotin alone at a dose level of 0.5 mg/kg provided on day 1 of treatment; 2) cisplatin alone at a dose of 2 mg/kg provided on day 1 and day 8 of treatment; 3) tisotumab vedotin at a dose level of 0.5 mg/kg provided on day 1 of treatment in combination with cisplatin at a dose of 2 mg/kg provided on day 1 and day 8 of treatment; 4) IgG1 isotype control at a dose of 0.5 mg/kg provided on day 1 of treatment; or 5) IgG1-MMAE control at a dose of 0.5 mg/kg provided on day 1 of treatment. IgG1 isotype control, IgG1-MMAE control and tisotumab vedotin were each in PBS and injected intravenously. Cisplatin was in 0.9% NaCl and injected subcutaneously. […] Mice were housed in individually ventilated (IVC) cages, with a maximum of five mice per cage, and identified by ear tags.
To determine whether there were statistically significant differences between tumor volumes in control and treatment groups, tumor volumes in the treatment groups were compared with those in the control groups (e.g., IgG1-MMAE control, tisotumab vedotin alone or cisplatin alone) using Mann-Whitney analysis at the last day that all groups were intact, i.e., day 25. Statistical analysis of the difference between groups treated with tisotumab vedotin in combination with cisplatin and groups treated with either tisotumab vedotin alone or cisplatin alone was performed on day 32.
Tumor progression was plotted in a Kaplan-Meier plot, with a cut-off set at a tumor volume >500 mm^3. […]

Data set [4] concerns HuPrime® cervical xenograft model CV1248 [P3]. The experiment in a line: Anti-tumor efficacy of tisotumab vedotin with carboplatin in cervical cancer PDX mouse model. As to conditions: alone; tisotumab vedotin 2 mg/kg, carboplatin 40 or 80 mg/kg; FIGS. 3A and 3B. It is filed as in vivo, BALB/c nude mice. The procedure: The in vivo anti-tumor efficacy of tisotumab vedotin in combination with carboplatin was evaluated in a patient-derived xenograft (PDX) mouse model in female BALB/c nude mice (Crown Bioscience [Taicang] Inc.). Xenografts were derived from tumor specimens from cancer patients. Tumor fragments were obtained from xenografts in serial passage in nude mice. Tumors were cut into fragments of 2-4 mm diameter and placed in phosphate-buffered saline (PBS) until subcutaneous implantation. A cervical cancer PDX model (HuPrime® cervical xenograft model CV1248 [P3]; Crown Bioscience Inc.) was used in this experiment. Tumor size was determined by caliper measurement at least two times a week and tumor volume was calculated as 0.5×length× width^2. When tumors reached an average volume of 150 mm^3, mice were randomized in 7 groups (10 mice per treatment group). The day of randomization was designated day 0. Mice were treated with the following by intravenous injections: 1) tisotumab vedotin alone at a dose level of 2 mg/kg, provided on day 0, day 7 and day 14; 2) carboplatin (Selleck Chemicals, cat. no. […]

“Tisotumab vedotin: antibody-drug conjugate comprising an antibody that binds to tissue factor (TF), a protease-cleavable linker, and the microtubule disrupting agent MMAE”: in data set [1] (2.0 mg/kg), the efficacy entry was “robust efficacy” and the safety profile result is “manageable safety profile”. For the same compound, the “grade of reported peripheral neuropathy cases” value in data set [1] (in vivo) was “majority of the reported cases are grade 1-2”. In data set [1] (nearly all of the cases are grade 1), the “Epistaxis (bleeding AE)” value is given as “most common reported AE”. The “subjects with peripheral neuropathy” value in data set [1] (subjects who received treatment with tisotumab vedotin) is listed as “approximately 35%”. Besides, in data set [2], the tumor growth result is recorded as “efficiently inhibited tumor growth” and the survival entry is “prolonged survival”. For the same compound, in data set [3], the tumor growth result was “efficiently inhibited tumor growth” and the survival entry was “prolonged survival”. Further, in data set [4], the tumor growth result is reported as “efficiently inhibited tumor growth”.
On to `N.N.[Cl][Pt][Cl]` [Cisplatin, reference compound], for which, in data set [2], the tumor growth result is “inhibited tumor growth” and the survival result is given as “prolonged survival”. Also, in data set [3], the tumor growth result was “inhibited tumor growth” and the survival result is listed as “prolonged survival”.
Turning to `N.N.O=C([O-])C1(C(=O)[O-])CCC1.[Pt+2]` [Carboplatin, reference compound], the tumor growth result in data set [4] is reported as “did not inhibit tumor growth”.

(Values after US12246025B2, “Methods of treating cancer with a combination of a platinum-based agent and an anti-tissue factor antibody-drug conjugate” (priority 2018, dated 2025).)
